The target in one experiment is T1, STAT3 (Mus musculus, UniProt P42227).
T1 construct: endogenous in cells; host or cells: primary mouse hepatocytes isolated by liver perfusion
The experiment can be described thus: STAT3 inhibitor in IL-6-treated primary hepatocytes, OTC RT-PCR. The class given is cell-based. To be noted: 10 μM inhibitor 30 min then IL-6 48 h. As for the experimental part: Primary hepatocytes culture: Following perfusion, 1×10^6 isolated hepatocytes were seeded in 3 ml Williams E+Glutamx-TM-1 in 6 well plate. Four hours after, the medium was aspirated, and the cells were washed with PBS and incubated with 2 ml Williams E+Glutamx-TM-1 overnight. Cells were treated with 10 μM of HJC0152 STAT3 inhibitor (Selleckchem #58561), for 30 minutes cells and then treated with 10 ng/ml recombinant mouse IL-6 (R&D #406-ML-005) for 48 h.
RNA processing and quantitative PCR: RNA was extracted from liver tissue by using QIAzol Lysis Reagent (according to QIAzol® Handbook) or by Direct-zol™ MiniPrep Plus Kit (Zymo Research ZR-R2070). For hepatocytes RNA sequencing, RNA was extracted from dissociated hepatocytes. Following liver perfusion as previously described, hepatocytes were resuspended in QIAzol and frozen in −80° C. RNA was extracted by using QIAzol Lysis Reagent. RNA from cultured primary hepatocytes was extracted by using RNeasy Mini Kit (QIAGENe #74104). To evaluate mtDNA copy number, total DNA was isolated using DNA purification kit (DNeasy Blood & Tissue Kits Qiagen #69504). cDNA was synthesized from […] RNA by using qScript cDNA Synthesis Kit (Quanta #95749). Detection on cDNAs was performed using Syber Green Fast mix Perfect CT (Quantabio #95073) with the required primers (qPCR primer list—Table 1)

The next experiment relates to CD8+ splenocytes. Particulars: ex-vivo, 1 mM ammonia, WT mice. The procedure:
Activation of T cells from mice spleens: 10 weeks old WT female Balb/c mice were sacrificed and spleen harvested into cold-PBS on ice. Spleens were homogenized by syringe plunger through 70 uM strainer and washed with PBS. Following centrifugation at 1200 rpm for 5 min pellets were treated with RBC lysis buffer according to the manufacturer's instruction. Cells were resuspended in 2×10^6 cells/ml in splenocytes medium (complete RPMI medium supplemented with 50 μM β-mercaptoethanol, […] and Non-essential amino acids) supplemented with 6,000 IU/mL IL-2 (Chiron, rhIL2) and seeded in 24 well plates pre-coated with CD3 (BLG #100302). Following 72 h, cells were collected, centrifuged at 1200 rpm for 5 min, washed with splenocytes medium×2, and analyzed using CytoFLEX (Beckman Coulter) FACS analyzer.

In the next experiment the test system is primary hepatocytes. The experiment can be described thus: IL-6 supplementation of primary hepatocytes, RT-PCR. The class given is cell-based, mouse. The procedure: Liver Perfusions and hepatocytes dissociation: Livers of anaesthetized mice were perfused, with specific adjustments. The vena cava was inserted with 27 G syringe, fixed on the perfusion line. 10 ml of pre-warmed to 42° C. PPML buffer followed by 25 ml of pre-warmed to 42′C PM buffer with Liberase (Roche, cat #05401127001) were perfused through the vena cava. Immediately at the beginning of the perfusion, the portal vein was cut. Following perfusion of 25 ml of PM buffer and Liberase solution, livers were harvested into a Petri dish with 10 ml of pre-warmed PM buffer and chopped by forceps. Dissociated liver cells were collected and filtered through a slanted 100 um cell strainer. Cells were spin down at 30 g for 3 min at 4° C. to get hepatocytes enriched pellet. Pellet was resuspended in […] cold PM buffer. To enrich live hepatocytes, 21.6 ml cold Percoll (G.E. Healthcare #17-0891-01) mixed with +2.4 ml DPBSX10+CaCl2)+MgCl2 was added to the cells. Cells were centrifuged at 600 rpm for 10 minutes at 4° C. Supernatant containing the dead cells was aspirated, and cells were resuspended in 25 ml of cold Williams E+Glutamx-TM-1 (Gibco, cat #32551, 1% penstrep, 1% FBS, 1% L-Glutamine). […]
RNA processing and quantitative PCR: RNA was extracted from liver tissue by using QIAzol Lysis Reagent (according to QIAzol® Handbook) or by Direct-zol™ MiniPrep Plus Kit (Zymo Research ZR-R2070). […]

T1 sequence (P42227 whole entry, the tested form may be a part): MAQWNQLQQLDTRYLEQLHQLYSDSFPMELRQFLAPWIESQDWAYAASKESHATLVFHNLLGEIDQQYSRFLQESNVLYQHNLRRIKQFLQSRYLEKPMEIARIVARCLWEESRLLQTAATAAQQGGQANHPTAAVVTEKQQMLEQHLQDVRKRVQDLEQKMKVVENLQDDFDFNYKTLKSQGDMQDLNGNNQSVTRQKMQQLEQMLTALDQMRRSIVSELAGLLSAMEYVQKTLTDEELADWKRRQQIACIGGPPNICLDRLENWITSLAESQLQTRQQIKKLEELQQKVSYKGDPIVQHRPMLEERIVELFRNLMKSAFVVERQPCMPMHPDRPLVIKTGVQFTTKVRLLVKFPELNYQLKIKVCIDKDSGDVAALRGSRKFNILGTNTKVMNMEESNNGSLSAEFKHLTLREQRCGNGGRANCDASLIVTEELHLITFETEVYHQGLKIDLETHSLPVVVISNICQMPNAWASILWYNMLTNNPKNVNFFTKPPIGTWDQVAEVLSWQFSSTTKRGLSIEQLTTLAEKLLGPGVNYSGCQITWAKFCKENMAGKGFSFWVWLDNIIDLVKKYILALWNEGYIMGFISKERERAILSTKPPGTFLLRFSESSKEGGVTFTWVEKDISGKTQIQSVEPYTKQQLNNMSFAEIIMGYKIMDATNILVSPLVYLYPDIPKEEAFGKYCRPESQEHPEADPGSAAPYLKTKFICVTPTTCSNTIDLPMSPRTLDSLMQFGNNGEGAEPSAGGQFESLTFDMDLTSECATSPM

`NCCOc1ccc(Cl)cc1C(=O)Nc1ccc([N+](=O)[O-])cc1Cl` [HJC0152]: the “OTC expression levels in the presence of IL-6” value at STAT3 is “rescued”; at STAT3 (listed as HJCO152), “restores”.

For `N` [ammonia], in the experiment on CD8+ splenocytes, the “activation of T-cells splenocytes” value is on record as “reduced” and the “survival of T-cells splenocytes” value is listed as “reduced”.

B1: IL-6: recombinant mouse IL-6 (R&D #406-ML-005) (protein, UniProt P08505 25-211, looked up)
Interleukin-6: FPTSQVRRGDFTEDTTPNRPVYTTSQVGGLITHVLWEIVEMRKELCNGNSDCMNNDDALAENNLKLPEIQRNDGCYQTGYNQEICLLKISSGLLEYHSYLEYMKNNLKDNKKDKARVLQRDTETLIHIFNQEVKDLHKIVLPTPISNALLTDKLESQKEWLRTKTIQFILKSLEEFLKVTLRSTRQT
In the case of B1, in the experiment on primary hepatocytes (10 ng/ml recombinant mouse IL-6, 48 h), the “RNA expression levels of OTC” value is on record as “decreased”. For the same molecule, the “CCL2 RNA levels” value in the experiment with primary hepatocytes (IL-6 supplementation) is “increased”.

Source of the values: patent US20250057985A1, “REEXPRESSION OF HNF4A TO ALLEVIATE CANCER-ASSOCIATED CACHEXIA” (YEDA RESEARCH AND DEVELOPMENT CO. LTD., priority 2022, published 2025).
